The results in this text go back to PubChem BioAssay (NCI).

Common to all, as to assay: NCI anticancer screen, dose series, 48 h
In assay [1] the test system is MDA-MB-435.
Assay [2] relates to SR leukemia.
Assay [3] has as its system U251 CNS.
For assay [4], the system named is COLO 205 colon.
Assay [5] has as its system RPMI-8226 leukemia.
In assay [6] the test system is OVCAR-5 ovarian.
For assay [7], the system named is SK-MEL-5 melanoma.
The test system of assay [8] is T-47D breast.
The subject of assay [9] is ACHN renal.
For assay [10], the system named is KM12 colon.
The test system of assay [11] is MDA-MB-231 breast.
For assay [12], the system named is SW-620 colon.
Assay [13] relates to SK-OV-3 ovarian.

Structures are written as SMILES.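 Test compounds were applied to cells in 96-well plates for 48 hours at 5 doses. TGI: concentration producing complete growth inhibition.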 Where a SMILES comes first, the peptide text is derived from it. [ ]: non-standard residue; d: D form. The star is where a group is joined. ξ: configuration not given here. ξD = NC(CC(=O)O)C(=O)O; Ac3c = NC1(C(=O)O)CC1; Boc = CC(C)(C)OC(=O)*; OtBu = CC(C)(C)O*

For `CN(C)Cc1cc(C(=O)/C=C/c2cccc(Cl)c2)cc(CN(C)C)c1O`, the TGI in [1] is 12.6 µM; in assay [2] it was 6.93 µM; in assay [3], 12.3 µM; in assay [4], 3.79 µM; in [5], 7.73 µM; in [6], 19 µM. Moreover, the TGI in assay [7] amounted to 6.92 µM; in [8] it was 19.9 µM; in assay [9], 10.3 µM; in [10], 19.7 µM; in [11] it was 8.87 µM; in assay [12], 17.5 µM.

`O=[N+]([O-])c1ccc2c(Nc3ccccc3-c3ccccc3Nc3c4ccccc4nc4cc([N+](=O)[O-])ccc34)c3ccccc3nc2c1`: the TGI in [1] was 3.8 µM; in [2], 15.4 µM; in assay [3], 22.9 µM; in assay [4], 9.53 µM; in assay [5], above 39.9 µM; in [6], 56.8 µM. Further, the TGI in [7] was 8.09 µM; in assay [8] it was 20.3 µM; in assay [9], 49 µM; in assay [10], 36.9 µM; in assay [13], above 56.2 µM; in assay [11], 6.38 µM. In assay [12], this molecule had a TGI of 11.1 µM.

Turning to `CSc1ncc2c(n1)-c1ccccc1OC2NC(C)(C)C` (centres undefined), the TGI in assay [1], in [2], in assay [3], in [4], in assay [5] and in assay [6] was above 100 µM throughout. Moreover, the TGI in [8], in assay [9], in assay [10], in assay [13], in [11] and in [12] was above 100 µM in each case.

On to `CCn1c2ccc(O)c(C(=O)OC)c2c2cc3ccccc3c(O)c21`, for which the TGI in assay [1] amounted to 48.3 µM; in assay [2], 57.6 µM; in [3] it was 69.2 µM; in assay [4], 29.5 µM; in assay [5], 33.3 µM; in assay [6], 73.3 µM. Further, the TGI in assay [7] was 38.5 µM; in assay [8] it was 34.1 µM; in [9], 54.1 µM; in assay [10], 33.6 µM; in [13] it was 43.8 µM; in assay [11] it was above 100 µM.

On to `Cc1nn(C)c2nc3ccc(Cl)cc3c(-c3ccccc3)c12`, for which the TGI in [1], in [2], in assay [3], in [4], in assay [5] and in assay [6] was above 100 µM each time. The TGI in assay [8], in assay [9], in assay [10], in [13], in [11] and in assay [12] was above 100 µM throughout.

With `CC(C)C(C/C=C1/CC(CO)(COC(=O)C2CCCCC2)OC1=O)C(C)C` (centres undefined), the TGI was above 100 µM in [1]; above 100 µM in assay [2]; 43.9 µM in assay [3]; 20.9 µM in assay [4]; 40.7 µM in assay [6]; above 100 µM in assay [7]. Moreover, the TGI in assay [8] is 45.9 µM; in assay [9] it was 30.2 µM; in assay [10], 55.3 µM; in assay [13], above 100 µM; in [11], 37.4 µM; in [12], 42.5 µM.

As for `N#CC12C(=O)N3C(=NC(c4ccccc4)NC3c3ccccc3)C1(C#N)C(c1ccccc1)NC1=C2CCCC1` (centres undefined), the TGI in assay [1], in assay [3], in assay [4], in [5], in assay [6] and in assay [7] was above 100 µM throughout. The TGI in [8], in assay [9], in [10], in [13], in assay [11] and in assay [12] was above 100 µM in each case.

With `COc1cc(/C=C2\Cc3cc(OC)c(OC)cc3C2=O)cc(OC)c1`, the TGI in [1], in assay [3], in assay [4], in [5], in assay [6] and in assay [7] was above 100 µM each time. For the same molecule, the TGI in [8] is above 100 µM; in assay [9], above 100 µM; in [10] it was above 100 µM; in [13], above 84.9 µM; in assay [11], above 100 µM; in assay [12], above 100 µM.

With `N#Cc1c(Nc2nc3ccccc3s2)c2ccccc2n2c1nc1ccccc12`, the TGI in assay [1], in [2], in [3], in [4], in assay [5] and in [6] was above 100 µM throughout. In addition, the TGI in [7], in [8], in [9], in assay [10], in [11] and in [12] was above 100 µM in each case.

Turning to `Cc1ccc(N=C2SC(c3ccc(C)cc3)(c3ccc(C)cc3)c3ccccc32)cc1`, the TGI in [1], in [3], in [4], in assay [5], in assay [6] and in assay [7] was above 100 µM in each case. The TGI in [8], in assay [9], in assay [10], in [13], in [11] and in [12] was above 100 µM throughout.

Take `CN(C)C(=O)C(F)(F)C(c1ccc(Br)cc1)C1C(=O)N(C)C(=O)N(C)C1=O` (centres undefined): the TGI in assay [1], in assay [3], in assay [4], in assay [5], in assay [6] and in assay [7] was above 100 µM in each case. Further, the TGI in assay [8], in [9], in assay [10], in assay [13], in assay [11] and in [12] was above 100 µM each time.

Regarding `CCOC(=O)c1c(NCc2ccccc2)n(-c2ccccc2)c(=S)n(-c2ccccc2)c1=O`, the TGI in assay [1], in assay [2], in [3], in assay [4], in assay [5] and in assay [6] was above 100 µM each time. The TGI in [7], in assay [8], in [9], in assay [10], in assay [11] and in [12] was above 100 µM in each case.

Take `COP(=O)(OC)C(NC=O)P(=O)(OC)OC`: the TGI in assay [1], in [2], in assay [3], in assay [4], in assay [5] and in assay [7] was above 100 µM throughout. For the same molecule, the TGI in [8], in [9], in assay [13], in [11] and in assay [12] was above 100 µM throughout.

`CC1C2CC(C/C2=N/O)C1(C)C` (centres undefined): the TGI in assay [1], in [2], in assay [3], in [4], in [6] and in assay [7] was above 100 µM throughout. In addition, the TGI in assay [8], in assay [9], in assay [10], in [13], in assay [11] and in [12] was above 100 µM throughout.

For `Cc1cc(C)c2c(=N)c3ccccc3n(CCCCCCO)c2n1`, the TGI came out at 16.7 µM in assay [1]; 13.8 µM in [3]; 2.84 µM in assay [4]; 4.29 µM in assay [5]; 21.2 µM in assay [6]; 8.16 µM in [7]. The TGI in [8] was 12.1 µM; in assay [9] it was 6.81 µM; in assay [10] it was 13.5 µM; in assay [13] it was 18.5 µM; in [11] it was 15.1 µM; in assay [12], above 36.1 µM.

As to `CC(=O)C12C[C@](C#N)(N3CCCCCC3)C1C=Cc1ccccc12` (some centres undefined), the TGI in assay [1], in assay [2], in assay [3], in [4], in [5] and in assay [7] was above 100 µM throughout. Moreover, the TGI in assay [8], in [9], in assay [10], in [13], in [11] and in [12] was above 100 µM each time.

In the case of `COC(=O)C1(NC(=O)C(CC(=O)OC(C)(C)C)NC(=O)OC(C)(C)C)CC1` (centres undefined) (Boc-[ξD](OtBu)-[Ac3c]-OMe), the TGI in assay [1], in [3], in [4], in assay [5], in assay [6] and in [7] was above 100 µM each time. Besides, the TGI in assay [8], in assay [9], in assay [10], in assay [13], in assay [11] and in assay [12] was above 100 µM throughout.
